According to ChEMBL document CHEMBL1150083, “The Racemization of Crinitol. Resolution of Crinitol and of 3-Nonen-2-ol Enantiomers by Recycle-HPLC, via MTPA Esters” (J Nat Prod, 1995):
Activity calls are given as the source filed them.

Assays:
Format in all cases: functional, organism-based
[1] = tested on: Streptococcus mutans; experiment: Antimicrobial activity against Streptococcus mutans
[2] = tested on: Cutibacterium acnes; experiment: Antimicrobial activity against Propionibacterium acnes
[3] = tested on: Bacillus subtilis; experiment: Antimicrobial activity against Bacillus subtilis
[4] = tested on: Staphylococcus aureus; experiment: Antimicrobial activity against Staphylococcus aureus
[5] = tested on: Corynebacterium ammoniagenes; experiment: Antimicrobial activity against Brevibacterium ammoniagenes

Measured: Activity

CC(C)=CCC/C(C)=C/[C@H](O)C/C(C)=C/CC/C(C)=C/CO
active: all assays above

CC(C)=CCC/C(C)=C/[C@@H](O)C/C(C)=C/CC/C(C)=C/CO
active: all assays above
